Source: PubChem BioAssay (NCI)
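Cells were grown in 96-well plates and exposed to each compound for 48 hours at five concentrations; endpoints were interpolated linearly between bracketing concentrations, or set to the highest concentration if not reached. The concentration for full growth arrest is given as TGI.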

Assays:
Test in all cases: inhibition of tumour cell growth, NCI panel, 48 h
MDA-MB-231 breast = tested on: MDA-MB-231 breast
KM12 colon = tested on: KM12 colon
OVCAR-3 ovarian = tested on: OVCAR-3 ovarian
NCI-H226 lung = tested on: NCI-H226 lung
U251 CNS = tested on: U251 CNS
CCRF-CEM leukemia = tested on: CCRF-CEM leukemia
PC-3 prostate = tested on: PC-3 prostate
K-562 leukemia = tested on: K-562 leukemia
OVCAR-8 ovarian = tested on: OVCAR-8 ovarian
M14 melanoma = tested on: M14 melanoma
SF-268 CNS = tested on: SF-268 CNS
SK-MEL-5 melanoma = tested on: SK-MEL-5 melanoma
MOLT-4 leukemia = tested on: MOLT-4 leukemia
SNB-75 CNS = tested on: SNB-75 CNS
SK-OV-3 ovarian = tested on: SK-OV-3 ovarian
EKVX NSCLC = tested on: EKVX NSCLC
IGROV1 ovarian = tested on: IGROV1 ovarian
A549 NSCLC = tested on: A549 NSCLC
SNB-19 CNS = tested on: SNB-19 CNS
T-47D breast = tested on: T-47D breast
BT-549 breast = tested on: BT-549 breast
A498 renal = tested on: A498 renal
MALME-3M melanoma = tested on: MALME-3M melanoma
786-0 renal = tested on: 786-0 renal
SF-539 CNS = tested on: SF-539 CNS
UACC-257 melanoma = tested on: UACC-257 melanoma
SK-MEL-2 melanoma = tested on: SK-MEL-2 melanoma
SK-MEL-28 melanoma = tested on: SK-MEL-28 melanoma
LOX IMVI melanoma = tested on: LOX IMVI melanoma
OVCAR-5 ovarian = tested on: OVCAR-5 ovarian
HOP-62 NSCLC = tested on: HOP-62 NSCLC
SR leukemia = tested on: SR leukemia
ACHN renal = tested on: ACHN renal
HCT-15 colon = tested on: HCT-15 colon
RPMI-8226 leukemia = tested on: RPMI-8226 leukemia
MCF7 breast = tested on: MCF7 breast
UACC-62 melanoma = tested on: UACC-62 melanoma
UO-31 renal = tested on: UO-31 renal
HOP-92 NSCLC = tested on: HOP-92 NSCLC
NCI-H460 lung = tested on: NCI-H460 lung
DU-145 prostate = tested on: DU-145 prostate
SN12C renal = tested on: SN12C renal
MDA-N = tested on: MDA-N
NCI-H23 lung = tested on: NCI-H23 lung
MDA-MB-435 = tested on: MDA-MB-435
TK-10 renal = tested on: TK-10 renal
RXF 393 renal = tested on: RXF 393 renal
HS 578T breast = tested on: HS 578T breast
HCC-2998 colon = tested on: HCC-2998 colon
HCT-116 colon = tested on: HCT-116 colon
HL-60(TB) leukemia = tested on: HL-60(TB) leukemia
HT29 colon = tested on: HT29 colon
SW-620 colon = tested on: SW-620 colon
SF-295 CNS = tested on: SF-295 CNS

Measured: TGI

CC(C)(C)OC(=O)N1CCCC1=O
> 10 µM: all assays above
